The target in one series is avidin (Gallus gallus, UniProt P02701). The settings on record: non-covalent interaction; cited from earlier work.
Another series concerns COS-7 cells. In words: Mutagenesis assay: site-specifically modified pMS2 shuttle vector replicated in COS-7 cells. It counts as cell-based. The note with it: for Deletions / Single base substitutions G to A / Single base substitutions G to C / Single base substitutions G to T: number among colonies scored, pMS2 vector, COS-7 cells; for Frequency of mutations: pMS2 vector replicated in COS-7 cells. The procedure:
Mutagenesis assays were performed using a previously developed pMS2 shuttle vector/COS-7 system (Moriya, Proc. Natl. Acad. Sci. U.S.A. 90:1122-1126, 1993). In its single-stranded form, the pMS2 vector contains a hairpin loop with an internal EcoRV restriction site. Incorporation of control non-damaged oligodeoxynucleotides into this site was accomplished in the presence of a scaffold DNA according to a published method (Kanuri et al., J. Biol. Chem. 277:18257-18265, 2002). To create a single-stranded pMS2 containing site-specific interstrand crosslink, the procedure was modified as described below.
Oligodeoxynucleotides containing a model acrolein-derived site-specific interstrand crosslink (FIG. 1A and FIG. 1B) were designed in such a way that peripheral regions of the longer strands (36-mer) were complementary to the vector sequences immediately adjacent to the EcoRV site. A circular single-stranded pMS2 vector (approximately 15 pmol) was digested with 40 units of EcoRV (New England BioLabs) for 3 hours at 37° C. to generate a linear DNA. 5′-phosphorylated crosslinked inserts (60 pmol) were added to the linear single-stranded pMS2 (15 pmol), and ligated using 60 units of T4 DNA ligase (New England BioLabs) for 48 hours at 4° C. To obtain double-stranded pMS2 vectors, the 36-mer strand of the crosslink or the scaffold oligodeoxynucleotide in control DNA was extended using 5 units of T4 DNA polymerase (New England BioLabs) and 1 mM dNTPs at 37° C. for 1 hour. A newly-synthesized strand was concomitantly sealed using 5 units of T4 DNA ligase (New England BioLabs). The creation of double-stranded pMS2 was verified by PstI (New England BioLabs) digestion.
Transfection of pMS2 vector into COS-7 cells, isolation of progeny DNA, selection of individual clones by E. coli transformation, and differential hybridization analyses were performed as previously described (Moriya, Proc. Natl. Acad. Sci. U.S.A. 90:1122-1126, 1993; Kanuri et al., J. Biol. Chem. 277:18257-18265, 2002).
Previous studies have established that in human cells, crotonaldehyde-mediated N^2-N^2-guanine ICLs were repaired mostly (>94%) in an error-free manner (Liu et al., Biochemistry 45:12898-12905, 2006). Since acrolein-mediated ICLs are structurally similar to crotonaldehyde-mediated ICLs, it is possible that model acrolein-derived N^2-N^2-guanine ICL (FIG. 1A) would not be highly mutagenic when plasmid vectors containing this lesion were replicated in mammalian cells. In order to test this, oligodeoxynucleotides were constructed to contain a site-specific ICL in either CpG or GpC sequence contexts (FIG. 1B) and engineered into a double-stranded DNA shuttle vector (pMS2). The vector was replicated in COS-7 cells, and progeny DNAs were analyzed to determine frequency and types of mutations. In both the CpG and GpC sequence contexts, the mutation frequencies were very low, 3.0% and 3.2%, respectively (Table 2).

For the next series, the target named is E. coli DNA pol IV (Escherichia coli, UniProt Q47155). The note with it: −10 primer, 30-minute reactions, 37° C.
Sequence of E. coli DNA pol IV (Q47155 whole entry): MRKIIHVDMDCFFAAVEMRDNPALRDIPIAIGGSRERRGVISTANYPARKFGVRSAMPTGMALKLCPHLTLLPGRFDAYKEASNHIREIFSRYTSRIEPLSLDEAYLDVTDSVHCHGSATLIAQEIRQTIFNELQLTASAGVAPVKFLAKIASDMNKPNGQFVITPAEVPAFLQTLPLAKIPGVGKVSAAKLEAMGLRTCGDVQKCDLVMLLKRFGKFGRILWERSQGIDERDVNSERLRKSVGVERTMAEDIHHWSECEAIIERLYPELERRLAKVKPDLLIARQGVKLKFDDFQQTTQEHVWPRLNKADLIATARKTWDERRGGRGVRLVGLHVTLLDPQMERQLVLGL
The target of the next series is T1, E. coli DNA pol II (Escherichia coli, UniProt P21189).
T1 construct: made in house
T1 sequence (P21189 whole entry): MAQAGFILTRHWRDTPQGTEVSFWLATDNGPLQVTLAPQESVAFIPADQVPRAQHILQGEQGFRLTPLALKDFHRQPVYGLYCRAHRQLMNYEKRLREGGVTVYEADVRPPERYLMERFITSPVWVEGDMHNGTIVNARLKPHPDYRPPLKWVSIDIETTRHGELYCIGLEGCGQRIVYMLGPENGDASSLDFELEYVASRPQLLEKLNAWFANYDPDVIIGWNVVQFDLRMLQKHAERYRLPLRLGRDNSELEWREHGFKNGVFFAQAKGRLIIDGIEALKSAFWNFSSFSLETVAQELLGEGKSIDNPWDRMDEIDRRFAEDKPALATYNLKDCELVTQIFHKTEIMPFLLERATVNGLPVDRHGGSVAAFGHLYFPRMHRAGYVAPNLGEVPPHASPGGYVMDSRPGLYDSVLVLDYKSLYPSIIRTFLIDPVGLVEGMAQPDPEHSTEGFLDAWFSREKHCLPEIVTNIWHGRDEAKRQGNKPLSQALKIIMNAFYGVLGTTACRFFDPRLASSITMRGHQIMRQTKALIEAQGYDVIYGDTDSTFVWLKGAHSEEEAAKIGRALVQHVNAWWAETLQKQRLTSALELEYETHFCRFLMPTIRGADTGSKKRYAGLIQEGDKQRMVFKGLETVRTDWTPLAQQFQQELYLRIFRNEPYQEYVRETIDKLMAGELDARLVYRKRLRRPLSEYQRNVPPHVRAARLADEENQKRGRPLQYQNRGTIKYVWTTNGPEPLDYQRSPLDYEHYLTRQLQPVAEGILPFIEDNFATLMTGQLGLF
The series is described as follows: Primer extension assay by E. coli DNA pol II. The note with it: pol II 0.3 nM, time course. It counts as biochemical. The procedure:
Control, non-damaged and ICL-containing DNA substrates were used to analyze replication from a −10 primer by pol II (FIG. 7A) and pol IV (FIGS. 7B and 7C). Using the non-damaged primer-template substrates pol II catalyzed a highly processive polymerization to yield full-length primer extension products. […] ICL bypass by pol II was not observed even when reactions were conducted with increased enzyme concentrations (up to a 1000-fold excess relative to DNA substrate).

The source of these data is patent US8715927B2, “Inhibition of DNA polymerases to augment chemotherapeutic and antimicrobial agents” (priority 2008, dated 2014).

Sequence of avidin (P02701 25-152, species assumed): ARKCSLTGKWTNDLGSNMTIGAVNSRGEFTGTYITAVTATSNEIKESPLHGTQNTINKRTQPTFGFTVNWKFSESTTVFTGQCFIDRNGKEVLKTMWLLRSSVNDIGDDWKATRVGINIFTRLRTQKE
Description for E. coli DNA pol IV: The primer extension assays were conducted in a 10 μl reaction volume containing pol II or pol IV, 5 nM primer-template, 5 mM MgCl2, 100 μM dNTPs, 25 mM Tris-HCl (pH 7.5), 25 mM DTT, 0.5 mg/ml BSA and 10% glycerol. Reactions were carried out at 37° C. for 30 minutes followed by termination of the reaction with a solution containing 95% formamide, 10 mM EDTA and 0.03% (w/v) xylene cyanol and 0.03% (w/v) bromophenol blue. DNA replication products were separated through a 15% denaturing polyacrylamide gel at 2000 V and later analyzed on a Phosphor Imager (GE Healthcare).

For `O=C(O)CCCC[C@@H]1SC[C@@H]2NC(=O)N[C@@H]21` [biotin], on avidin, the “Ka of avidin-biotin complex” value is reported as 10^15 M^−1.

Regarding “CpG ICL: SEQ ID NO: 1 and 2 joined by G-(CH2)3-G; model acrolein-derived N2-N2-guanine ICL in CpG context (chain 1 GCTAGCGAGTCC; chain 2 CCTGCAAGCGATGGACTCGCTAGCATCGCTGGTACC; listed as DNA, chemistry not fully specified)”, in the series with COS-7 cells, the Deletions is listed as 0, the “Single base substitutions G to A” value was 0, the “Single base substitutions G to C” value came to 0 and the “Single base substitutions G to T” value came out at 2. The compound also displayed a Frequency of mutations with COS-7 cells of 3.0%.

Turning to “GpC ICL: SEQ ID NO: 3 and 4 joined by G-(CH2)3-G; model acrolein-derived N2-N2-guanine ICL in GpC context (chain 1 GCTGAGCGATCC; chain 2 CCTGCAAGCGATGGATCGCTCAGCATCGCTGGTACC; listed as DNA, chemistry not fully specified)”, in the series with COS-7 cells, the Deletions is 5, the “Single base substitutions G to A” value is recorded as 4, the “Single base substitutions G to C” value was 1 and the “Single base substitutions G to T” value came to 1. Also, the Frequency of mutations in the series with COS-7 cells is 3.2%.

With “ICL1: crosslinked oligodeoxynucleotide, SEQ ID NO: 5 and 6 joined by G-(CH2)3-G; models DNA product of dual incision around the ICL (chain 1 GATGCTANCYTGTC; chain 2 AGCGATAGACACYATAGCATCGCTGGTACCGACTCG; crosslinked oligodeoxynucleotide, G-(CH2)3-G interstrand crosslink, further chemistry not given here)”, the “replication by increasing concentrations of pol IV” value with E. coli DNA pol IV was “very poor strand displacement synthesis”. Further, the “replication from −10 primer by pol II” value with E. coli DNA pol II is “unable to carry out effective strand-displacement synthesis”.
